Converted amounts (≈) assume the structure as drawn. Like-named read-outs stand apart in the source and are kept apart here.
What was measured:
Test in all cases: MIC (Minimum Inhibitory Concentration)
Assay type in all cases: cell-based
[1] = tested on: Aspergillus flavus; conditions: Aspergillus flavus A 2385
[2] = tested on: Aspergillus parasiticus
[3] = tested on: Aspergillus versiodor; conditions: Aspergillus versiodor Nr. 7
[4] = tested on: Bacillus subtilis; conditions: ATCC6633; Bacillus subtilis ATCC 6633
[5] = tested on: Candida albicans
[6] = tested on: Diplococcus pneumoniae; conditions: Streptococcus pneumoniae; Diplococcus pneumoniae A 2783
[7] = tested on: Fusarium; conditions: Fusarium A 3241
[8] = tested on: Pasteurella multocida; conditions: Pasteurella multocida A 723; read-out: MIC values
[9] = tested on: Penicillium islandicum; conditions: Talaromyces islandicus; Penicillium islandicum D 189
[10] = tested on: Penicillium italicum; conditions: Penicillium italicum 278-65
[11] = tested on: Penicillium patalum; conditions: Penicillium patalum A 2389
[12] = tested on: Penicillium rubrum; conditions: Talaromyces ruber; Penicillium rubrum A 2395
[13] = tested on: Penicillium veridicatum; conditions: Penicillium veridicatum A 2370
[14] = tested on: Proteus morganii; conditions: Morganella morganii; Proteus morganii 2241
[15] = tested on: Rhizoctonia solani; conditions: Rhizoctonia solani 200-25; read-out: MIC values
[16] = tested on: Staphylococcus aureus
[17] = tested on: Trichophyton equinum
[18] = tested on: Trichophyton mentagrophytus
[19] = tested on: Trichophyton quickeaneum; conditions: Trichophyton quickeaneum A 2040; read-out: MIC values
[20] = tested on: Trichophyton rubrum
[21] = tested on: Trichophyton schoenleinii; conditions: Trichophyton schoenleinii 435-63; read-out: MIC values
[22] = tested on: Trichophyton soudanese joyeux; conditions: Trichophyton soudanese joyeux 440-63; read-out: MIC values
[23] = tested on: Trichophyton tonsurans; conditions: Trichophyton tonsurans 561-50; read-out: MIC values
[24] = tested on: Trichophyton verrucosum
[25] = tested on: Trichophyton violoceum; conditions: Trichophyton violoceum 442-62; read-out: MIC values

Work on [C-]#[N+]C(=C(C)c1ccco1)S(=O)(=O)c1ccc(C)cc1 [Example 13, 1-isocyano-2-(2-furanyl)-1-(4-toluenesulphonyl)-1-propene] yielded an MIC [1] of 12.5 µg/mL (≈ 43.5 µM), an MIC ([2]; Aspergillus parasiticus A 2396) of 6 µg/mL (≈ 20.9 µM) and an MIC values ([2]; Aspergillus parasiticus A 2397) of 6 µg/mL (≈ 20.9 µM). The MIC [3] was over 100 µg/mL, the MIC [4] was 1.5 µg/mL (≈ 5.22 µM) and the MIC ([5]; Candida albicans A 7, read-out: MIC values) was 0.1 µg/mL (≈ 0.348 µM). For the same compound, the MIC ([5]; Candida albicans A 3140, read-out: MIC values) was 0.2 µg/mL (≈ 0.696 µM), the MIC ([5]; Candida albicans A 3141, read-out: MIC values) was under 0.05 µg/mL and the MIC ([5]; Candida albicans A 3144, read-out: MIC values) was 0.2 µg/mL (≈ 0.696 µM). It also gave an MIC ([5]; Candida albicans A 3145, read-out: MIC values) of under 0.05 µg/mL, an MIC ([5]; Candida albicans A 3165, read-out: MIC values) of 1.5 µg/mL (≈ 5.22 µM) and an MIC ([5]; Candida albicans A 3167, read-out: MIC values) of 0.4 µg/mL (≈ 1.39 µM). For the same compound, the MIC ([5]; Candida albicans A 3168, read-out: MIC values) was 0.2 µg/mL (≈ 0.696 µM), the MIC ([5]; Candida albicans A 3169, read-out: MIC values) was 0.2 µg/mL (≈ 0.696 µM) and the MIC ([5]; Candida albicans A 3171, read-out: MIC values) was under 0.05 µg/mL. For the same compound, the MIC ([5]; Candida albicans A 3190, read-out: MIC values) was under 0.05 µg/mL, the MIC ([5]; Candida albicans A 3191, read-out: MIC values) was under 0.05 µg/mL and the MIC ([5]; Candida albicans A 3194, read-out: MIC values) was under 0.05 µg/mL. It also gave an MIC ([5]; Candida albicans A 3196, read-out: MIC values) of under 0.05 µg/mL, an MIC [6] of 12.5 µg/mL (≈ 43.5 µM) and an MIC [7] of 50 µg/mL (≈ 174 µM). The MIC [8] was 0.75 µg/mL (≈ 2.61 µM), the MIC [9] was 12.5 µg/mL (≈ 43.5 µM) and the MIC [10] was 3 µg/mL (≈ 10.4 µM). The MIC [11] was 25 µg/mL (≈ 87 µM), the MIC [12] was 25 µg/mL (≈ 87 µM) and the MIC [13] was 3 µg/mL (≈ 10.4 µM). It also gave an MIC [14] of 12.5 µg/mL (≈ 43.5 µM), an MIC [15] of 6 µg/mL (≈ 20.9 µM) and an MIC ([16]; Staphylococcus aureus A 321) of 12.5 µg/mL (≈ 43.5 µM). For the same compound, the MIC ([16]; Staphylococcus aureus A 355) was 6 µg/mL (≈ 20.9 µM), the MIC ([16]; Staphylococcus aureus A 2000) was 6 µg/mL (≈ 20.9 µM) and the MIC ([17]; Trichophyton equinum 182-76, read-out: MIC values) was 1.5 µg/mL (≈ 5.22 µM). It also gave an MIC ([17]; Trichophyton equinum 856-71, read-out: MIC values) of 0.1 µg/mL (≈ 0.348 µM), an MIC ([18]; Trichophyton mentagrophytus 367-68, read-out: MIC values) of 3 µg/mL (≈ 10.4 µM) and an MIC ([18]; Trichophyton mentagrophytus 421-67, read-out: MIC values) of 3 µg/mL (≈ 10.4 µM). It also gave an MIC ([18]; Trichophyton mentagrophytus A 3252, read-out: MIC values) of 3 µg/mL (≈ 10.4 µM), an MIC ([18]; Trichophyton mentagrophytus R 177, read-out: MIC values) of 3 µg/mL (≈ 10.4 µM) and an MIC ([18]; Trichophyton mentagrophytus R 178, read-out: MIC values) of 12.5 µg/mL (≈ 43.5 µM). For the same compound, the MIC ([18]; Trichophyton mentagrophytus RRL 305, read-out: MIC values) was 3 µg/mL (≈ 10.4 µM), the MIC [19] was 0.4 µg/mL (≈ 1.39 µM) and the MIC ([20]; Trichophyton rubrum 218-65, read-out: MIC values) was 0.8 µg/mL (≈ 2.78 µM). For the same compound, the MIC ([20]; Trichophyton rubrum 494-62, read-out: MIC values) was 0.8 µg/mL (≈ 2.78 µM), the MIC ([20]; Trichophyton rubrum A 810, read-out: MIC values) was 0.8 µg/mL (≈ 2.78 µM) and the MIC [21] was 3 µg/mL (≈ 10.4 µM). It also gave an MIC [22] of 6 µg/mL (≈ 20.9 µM), an MIC [23] of 3 µg/mL (≈ 10.4 µM) and an MIC ([24]; Trichophyton verrucosum 134-66, read-out: MIC values) of 0.8 µg/mL (≈ 2.78 µM). The MIC ([24]; Trichophyton verrucosum A 2922, read-out: MIC values) was 3 µg/mL (≈ 10.4 µM) and the MIC [25] was 3 µg/mL (≈ 10.4 µM).
